The values that follow come from paper PMC6767236, “Selective Cannabinoid 2 Receptor Agonists as Potential Therapeutic Drugs for the Treatment of Endotoxin-Induced Uveitis” (Molecules, 2019).

As a reminder, the thermodynamic solubility is the concentration in solution at equilibrium with solid. A word on the Vss: it is the apparent volume that relates the amount in the body to the concentration in plasma or blood. Broadly, the EC50 is the concentration at which the effect is half-maximal. Broadly, the Ki is a measure of affinity in units of concentration, obtained from inhibition or displacement.

The conditions of data set [1]: human hepatocytes; * previously published; cited from earlier work.
Data set [2] can be described thus: Saturation (thermodynamic) solubility in buffer, FaSSIF, FeSSIF. The data set is classed as physicochemical. The note with it: thermodynamic from solid. The protocol: Saturation Solubility (= Thermodynamic Solubility)
Approximately 8.6 mg test compound per milliliter solvent/vehicle was stirred in HPLC vials (9 × 12 × 32 mm, Waters) at 350 rpm for 15 h. Samples of 10 µL each were taken and microscopically examined for presence of solid particles. If the active pharmacological ingredient (API) dissolved completely, more solid API was added, and stirring was continued for another 15 h. Addition of solid material was repeated up to 96 h or until residual solid particles could be detected. Samples of 0.5 mL were then transferred to Eppendorf Ultrafree filter tubes (Filter: PVDF 0.22 µm) and centrifuged at 14,500 rpm for 10 min. The filtrates were diluted in ethanol and analyzed for content by UPLC. The measurements were also conducted in 0.05 M aqueous phosphate buffer, fasted (FaSSIF), and fed (FeSSIF) simulated gastrointestinal fluid. […]

On the set-up of data set [3]: method as in earlier work. The note with it: mouse, i.v., 0.5-1 mg/kg; * previously published; cited from earlier work.
In data set [4] the target is T1, human CB1R (Homo sapiens, UniProt P21554).
T1 construct: host or cells: CHO
T1 sequence (P21554 whole entry): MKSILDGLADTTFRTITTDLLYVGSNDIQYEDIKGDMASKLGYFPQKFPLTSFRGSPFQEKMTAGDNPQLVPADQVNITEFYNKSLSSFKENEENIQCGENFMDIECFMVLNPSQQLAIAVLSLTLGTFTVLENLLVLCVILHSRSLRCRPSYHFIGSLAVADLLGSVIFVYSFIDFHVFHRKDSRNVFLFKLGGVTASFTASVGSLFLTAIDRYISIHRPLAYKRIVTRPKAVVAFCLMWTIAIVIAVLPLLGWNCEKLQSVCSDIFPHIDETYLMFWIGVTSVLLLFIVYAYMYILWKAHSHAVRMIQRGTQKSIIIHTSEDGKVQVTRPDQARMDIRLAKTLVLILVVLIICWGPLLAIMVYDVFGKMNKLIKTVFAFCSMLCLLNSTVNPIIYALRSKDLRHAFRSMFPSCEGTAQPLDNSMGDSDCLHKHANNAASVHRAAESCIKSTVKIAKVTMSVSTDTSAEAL
As to conditions: * previously published; read-out: hCB1R: beta arrestin EC50; cited from earlier work.

The nature of data set [5]: Octanol/water distribution coefficient (logD).
For data set [6] the following is noted: * previously published; cited from earlier work.
Data set [7] deals with T2, human CB2R (Homo sapiens, UniProt P34972).
T2 construct: bgal (beta-galactosidase fragment of the PathHunter system, named only in the cell line's name); host or cells: CHO-K1 (CHOK1hCB2_bgal)
T2 sequence (P34972 whole entry, the tested form may be a part): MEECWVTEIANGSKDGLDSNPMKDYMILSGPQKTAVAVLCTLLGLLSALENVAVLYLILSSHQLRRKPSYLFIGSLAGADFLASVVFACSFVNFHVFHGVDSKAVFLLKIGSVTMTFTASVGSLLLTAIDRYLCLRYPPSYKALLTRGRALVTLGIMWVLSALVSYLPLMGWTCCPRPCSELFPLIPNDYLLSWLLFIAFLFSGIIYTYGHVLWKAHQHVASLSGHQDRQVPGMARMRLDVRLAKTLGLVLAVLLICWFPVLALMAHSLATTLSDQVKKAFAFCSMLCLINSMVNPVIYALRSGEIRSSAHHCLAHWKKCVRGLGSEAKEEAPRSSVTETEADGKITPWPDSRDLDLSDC
In words: cAMP assay, CHO cells expressing human CB2R. The data set is classed as cell-based. The protocol: The effect of ligands on the forskolin-stimulated accumulation of cAMP was determined using the LANCE ULTRA cAMP kit as per the manufacturer’s instruction (Perkin-Elmer Life Sciences, Boston, MA, USA).
For human CB2R and CB1R, cAMP assays were performed using CHO cells stably expressing human CB2R or human CB1R (DiscoveRx, Fremont, CA, USA) using a cAMP-Nano-TRF detection kit (Roche Diagnostics, Penzberg, Germany). Cells were seeded 17–24 h prior to the experiment at a density of 3 × 10^4 cells per well in a black 96-well plate with clear flat bottom (Corning, Wiesbaden, Germany) and incubated in 5% CO2 at 37 °C in a humidified incubator. The growth medium was exchanged with Krebs Ringer bicarbonate buffer with 1 mmol/L 3-isobutyl-1-methylxanthine (IBMX), 0.1% fatty acid-free BSA and incubated at 30 °C for 60 min. Agonist was added to a final assay volume of 100 μL and the mixture was incubated for 30 min at 30 °C. The assay was stopped by the addition of 50 μL 3 × lysis reagent and shaken for 2 h at room temperature. The time-resolved fluorescence energy transfer was measured using an LF502 Nanoscan FLT (IOM, Berlin, Germany), equipped with a laser as excitation source. cAMP content was determined from the function of a standard curve spanning from 10 to 0.13 nmol/L cAMP. Efficacies are expressed as percent relative to 1 µM CP55940.
(In general: Cyclic AMP is a second messenger, typically raised through Gs and lowered through Gi signalling.)

For data set [8], the system named is mouse P-gp. The note with it: mouse P-gp; * previously published; cited from earlier work.
For data set [9], the target named is T2, human CB2R. As to conditions: cited from earlier work.
The target in data set [10] is mouse CB2R (Mus musculus, UniProt P47936). The experiment in a line: biochemical. Type of data set: binding. Further details: bgal (beta-galactosidase fragment of the PathHunter system, named only in the cell line's name); host or cells: CHO-K1 (CHOK1mCB2_bgal). The protocol: Membrane fractions were prepared from cultured CHOK1hCB1_bgal, CHOK1hCB2_bgal, and CHOK1mCB2_bgal cells (DiscoveRx, Fremont, CA, USA) as previously described. Protein concentration was determined using the Pierce bicinchoninic acid (BCA) protein assay (Rochford, IL, USA) as per the manufacturer’s instructions.
Sequence of mouse CB2R (P47936 whole entry, the tested form may be a part): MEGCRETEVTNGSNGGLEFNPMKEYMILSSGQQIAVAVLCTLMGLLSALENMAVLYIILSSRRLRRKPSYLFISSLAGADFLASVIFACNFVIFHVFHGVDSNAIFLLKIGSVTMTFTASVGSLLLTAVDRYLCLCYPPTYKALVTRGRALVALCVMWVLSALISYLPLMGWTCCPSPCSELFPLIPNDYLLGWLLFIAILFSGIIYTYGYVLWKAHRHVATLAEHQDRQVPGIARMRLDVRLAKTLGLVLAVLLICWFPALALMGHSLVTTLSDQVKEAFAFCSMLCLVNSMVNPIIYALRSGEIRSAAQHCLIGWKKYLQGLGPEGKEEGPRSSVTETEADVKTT
Radio ligand-binding assays were carried out as described by Souethoudt et al. (2018). Briefly, membranes from cells expressing human CB2R or CB1R or mouse CB2R and the radioligand, [^3H]-CP55940 (Perkin Elmer, Basel, Switzerland) was used. […] Membrane aliquots containing 5 µg (CHOK1hCB1_bgal) or 1 µg (CHOK1hCB2_bgal) of membrane protein in 100 µL assay buffer (50 mMTris-HCl, 5 mM MgCl2, 0.1% bovine serum albumin (BSA), pH 7.4) were incubated at 30 °C for 1 h, in presence of 3.5 nM of [^3H]-CP55940 (CHOK1hCB1_bgal) or 1.5 nM [^3H]-CP55940 (CHOK1hCB2_bgal). The incubation was terminated by rapid filtration performed on glass microfibre (GF/C) filters (Whatman International, Maidstone, UK), presoaked for 30 min with 0.25% polyethyleneimine (PEI), and using a Brandel harvester (Brandel, Gaithersburg, MD, USA). Filter-bound radioactivity was determined by scintillation spectrometry using a Tri-Carb 2900 TR liquid scintillation counter (Perkin Elmer, Boston, MA, USA). For mouse experiments, spleens were collected as previously described and resuspended in 2 mM Tris-EDTA, 320 mM sucrose, 5 mM MgCl2 (pH 7.4). Tissue was homogenized with a Potter homogenizer and centrifuged three times at 1000× g (10 min). The supernatants were centrifuged at 18,000× g (30 min), and the pellets were resuspended in assay buffer (50 mM Tris-HCl, 2 mM Tris-EDTA, 3 mM MgCl2, pH 7.4). These membrane fractions were used in rapid filtration assays with 400 pM of [^3H]-CP55,940. In all receptor binding experiments, nonspecific binding was determined in the presence of 1 µM “cold” agonist.

The target of data set [11] is T2, human CB2R. As to conditions: cited from earlier work. The source holds these as a separate data set.

Converted amounts (≈) assume the structure as drawn. Where two headings read alike, the source gives them in different places. Marks after values point to notes of the source that are not given here.

Consider `CCCCCCC(C)(C)c1cc(OC)c(C2=C[C@H]3CC[C@]2(CO)C3(C)C)c(OC)c1` [HU910, {(1S,4R)-2-[2,6-dimethoxy-4-(2-methyloctan-2-yl)phenyl]-7,7-dimethylbicyclo[2.2.1]hept-2-en-1-yl}methanol, reference compound], for which the “Hepatocyte Clearance human” value in data set [1] is reported as 9.2 μL/min/Mio cells. For the same compound, the thermodynamic solubility in data set [2] (FaSSIF pH 6.5, read-out: Thermodynamic Solubility in FaSSIF (pH 6.5)) came to 59 µg/mL (≈ 142 µM). Moreover, the solubility (thermodynamic) in [2] (FeSSIF pH 5.5, read-out: Thermodynamic Solubility in FeSSIF (pH 5.5)) turned out to be 128 µg/mL (≈ 309 µM). Further, in data set [2] (aqueous phosphate buffer pH 6.5, read-out: Thermodynamic Solubility in Aqueous Buffer (pH 6.5)), the thermodynamic solubility is under 1 µg/mL. In data set [3], the “AUCINF D” value is 6060 ng·kg·h/mL/mg, the “Clearance (CL)” value is 2.8 mL/min/kg, the T1/2 is given as 7.4 h and the Vss is given as 0.26 L/kg. Moreover, the EC50 in data set [4] is over 30000 nM. Moreover, the “LogD (at pH 7.4)” value in [5] was “out of range”. In addition, the “Plasma Protein Binding: FREE Fraction human” value in [6] is reported as 1.8%. For the same compound, the “hCB1R cAMP EC50/hCB2R cAMP EC50” value in data set [7] is over 2500. Also, in data set [8], the “P-glycoprotein-Mediated Efflux Extraction Ratio mouse” value is given as 3.0. Moreover, in data set [9], the “functional behaviour in hCB2R β-arrestin assay” value was “full agonist” and the “hCB2R: beta arrestin efficacy” value is reported as 109, 81 * %. Besides, the EC50 in data set [9] (read-out: hCB2R: beta arrestin EC50) is 109 nM. The “hCB2R Ki/mouse CB2R Ki” value in data set [10] was found to be 0.2. In [10] ([3H]-CP55940 displacement, read-out: mouse CB2R: Ki), the inhibitory constant (Ki) turned out to be 276 nM. Besides, in [11], the “functional behaviour in hCB2R cAMP assay” value is reported as “full agonists” and the “hCB2R: cAMP efficacy” value is reported as 4, 98 * %. Besides, the EC50 in data set [11] (read-out: hCB2R: cAMP EC50) was 4 nM.
